Laboratory results as given in PubChem BioAssay (NCI).
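Protocol summary: plate cells (96-well), add compound at 5 concentrations, incubate 48 h, interpolate endpoints linearly. TGI: total growth inhibition.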

What was measured:
Assay in all cases: inhibition of tumour cell growth, NCI panel, 48 h
[1] = tested on: PC-3 prostate
[2] = tested on: COLO 205 colon
[3] = tested on: A498 renal
[4] = tested on: SK-OV-3 ovarian
[5] = tested on: OVCAR-8 ovarian
[6] = tested on: EKVX NSCLC
[7] = tested on: CAKI-1 renal
[8] = tested on: NCI-H226 lung
[9] = tested on: HOP-62 NSCLC
[10] = tested on: UACC-257 melanoma
[11] = tested on: HL-60(TB) leukemia
[12] = tested on: IGROV1 ovarian
[13] = tested on: SR leukemia
[14] = tested on: MOLT-4 leukemia
[15] = tested on: RXF 393 renal
[16] = tested on: NCI/ADR-RES ovarian
[17] = tested on: HS 578T breast
[18] = tested on: SF-539 CNS
[19] = tested on: KM12 colon

Row | SMILES | TGI [1] [µM] | TGI [2] [µM] | TGI [3] [µM] | TGI [4] [µM] | TGI [5] [µM] | TGI [6] [µM] | TGI [7] [µM] | TGI [8] [µM] | TGI [9] [µM] | TGI [10] [µM] | TGI [11] [µM] | TGI [12] [µM] | TGI [13] [µM] | TGI [14] [µM] | TGI [15] [µM] | TGI [16] [µM] | TGI [17] [µM] | TGI [18] [µM] | TGI [19] [µM]
1 | Cc1sc2[nH]c(=O)oc(=O)c2c1C | > 100 | > 100 | > 100 | > 100 | > 100 | > 100 | > 100 | > 100 | > 100 | > 100 | > 100 | > 100 | > 100 | > 100 | > 100 | > 100 | > 71 | > 100 | > 93.3
2 | O=c1ccn(CC2(CO)CCCC2)c(=O)[nH]1 | > 100 | > 100 | > 100 | > 100 | > 100 | > 100 | > 100 | > 100 | > 100 | > 100 | > 100 | > 100 | > 100 | > 100 | > 100 | > 100 | > 100 | > 100 | > 100
3 | CN(C)CCCC1c2ccccc2Oc2ccc(C(F)(F)F)cc21 (stereo not given) | 27.1 | 17.7 | 25.9 | 30.7 | 31.9 | 31.3 | 25.8 | 23.1 | 31 | 26.5 | 28.1 | 27.6 | 24.5 | 22.7 | 17.4 | 28.3 | 31.8 | 29.5 | 28.4
4 | CCCC(=O)Nc1cc(/C=C/C(=O)N2CC(CCl)c3c2cc(OCc2ccccc2)c2[nH]cc(C)c32)n(C)c1 (stereo not given) | > 13.1 | 1.22 | 1.14 | > 25 | 0.202 | 0.635 | 2.09 | 0.941 | 0.453 | 0.868 | 0.26 | > 25 | 0.0722 | 0.61 | 0.0852 | 0.182 | 0.468 | 0.165 | 0.602
5 | O=C(NC(Cl)(C(F)(F)F)C(F)(F)F)c1ccc(F)cc1 | > 100 | > 100 | > 100 | > 100 | > 100 | > 100 | > 100 | > 100 | > 100 | > 100 | > 100 | > 100 | > 100 | > 100 | > 100 | > 100 | > 100 | > 100 | > 100
6 | O=C1NC(=S)N/C1=C\c1cc2c(=O)c3ccccc3sc2s1 | > 100 | > 100 | > 100 |  | > 100 | > 100 | > 100 | > 100 | > 100 | > 100 | > 100 | > 100 | > 100 | 69.5 | > 100 | > 100 | > 100 |  | > 100
7 | C[Si](C)(C)C#Cc1cc(-c2nc3ccccc3s2)ccc1N | 34.2 | 29.5 | 35 | 41.9 | 32.3 | 25.7 | 31 | 31.2 | 29.9 | 34.8 | 50 | 13.2 | 67.8 | 97.4 | 32.8 | 32.3 | 51 | 34.5 | 34.2
8 | C=C1CCCC2[C@](C)(CC3=C(Cl)C(=O)C=C(OC)C3=O)C(C)CC[C@]12C (stereo not given in full) | 6.64 | 9.76 | 16.2 | 46.5 | 9.78 | 5.06 | 8.83 | 14.7 | 13.5 | 13.6 | 10.3 | 4.76 | 13.6 | 6.99 | 12.1 | 33.2 | 26 | 9.06 | 8.14
9 | CCN(CC)CCC(=O)c1ccc(Sc2ccc(F)cc2)cc1 | 33.6 | 41.9 | 45.7 | 45 | 48.1 | 41.8 | 29.5 | 39.2 | 41.4 | 31 | 50.5 | 35 | 48.6 | 33.5 | 35.1 | 71.1 | 30.8 | 32.9 | 30.6
10 | S=C(NNC1=NCCCCN1)Nc1ccc(Cl)cc1 | 62.8 | 34.5 | > 100 | 93.1 | > 100 | > 100 | 0.0151 | > 100 | 31.7 | 43.9 | > 100 | > 100 | 60.9 | 47.1 | > 100 | > 100 | > 100 | 76.5 | > 100
11 | COc1ccc(OC)c(CSc2ccc(OC)c(OC)c2)c1 | > 100 | > 100 | 99.3 | > 100 | > 100 | > 100 | > 100 | > 100 | > 100 | > 100 | > 100 | > 100 | > 100 | > 100 | > 100 | > 100 | > 100 | > 100 | > 100
12 | COc1ccc(CC2C3=C(CCN2C(=O)C2CCC2)CC2(CC3)OCCO2)cc1O (stereo not given) | > 100 | 48 | > 100 | 88.1 | > 100 | > 100 | > 100 | > 100 | > 100 | > 100 | 76.9 | > 100 | > 100 | > 100 | 37.5 | 42.2 | 73.4 | 75.9 | > 100
13 | CCOC(=O)CCC(NC(=O)Cc1ccc(Nc2nc3ccccc3nc2-c2cccs2)cc1)C(=O)OCC (stereo not given) | > 100 | > 100 | > 100 | > 100 |  | > 100 | > 100 | > 100 | > 100 | > 100 | > 100 |  | > 100 | > 100 | 52.5 | > 100 | > 100 | > 100 | > 100
14 | Cc1ccc(/C=N/n2c(Cc3ccccc3)n[nH]c2=O)cc1 | > 100 | > 100 | > 100 |  | > 100 | > 100 | > 100 | > 100 | > 100 | > 100 | > 100 | > 100 | > 100 | > 100 | > 100 | > 100 | > 100 | > 100 | > 100
15 | Clc1c(Cl)c(Cl)c2c(nnn2C2CCCO2)c1Cl (stereo not given) | > 100 | 47.4 | 88.7 | > 100 | > 100 | 73.4 | 74.9 | > 100 | > 100 | > 100 | 38.5 | > 100 | 91.4 | 46.3 | > 100 | > 100 | 59 | > 100 | 
16 | CC(=O)Nc1ccc(NS(=O)(=O)c2ccc3nc(C)n(NS(=O)(=O)c4ccc(NC(C)=O)cc4)c(=O)c3c2)cc1 | > 100 | > 100 | > 100 | > 100 | > 100 | > 100 | > 100 | > 100 | > 100 | > 100 | > 100 | > 100 | > 100 | > 100 | > 100 | > 100 | > 100 | > 100 | > 100
17 | O=C(O)CSCc1cc2c(O)c(c1)Cc1cc(CSCC(=O)O)cc(c1O)Cc1cc(CSCC(=O)O)cc(c1O)Cc1cc(CSCC(=O)O)cc(c1O)C2 | > 100 | > 100 | > 100 | > 100 | > 100 | > 100 | > 100 | > 100 | > 100 | > 100 | > 100 | > 100 | > 100 | > 100 | > 100 | > 100 | > 100 | > 100 | > 100
18 | Oc1ccc2c(c1)CCc1c-2n(CCN2CCOCC2)c2ccc(O)cc12 | > 100 | > 100 | 39.6 | > 100 | 57.1 | > 100 | > 100 | > 100 | > 100 | > 100 | > 100 | 60.9 | > 100 | > 100 | > 100 | 48.3 | > 100 | > 100 | 52.9
19 | COC(=O)CCC(C)[C@H]1CCC2C3C(C[C@H](OC(C)=O)[C@@]21C)[C@@]1(C)CCC2(C[C@H]1C[C@H]3OC(C)=O)OOC1(CCCC1)OO2 (stereo not given in full) | > 100 | > 100 | > 100 | > 100 | > 100 | 56.4 | 92 | > 100 | 29.9 | > 100 | 54.3 | 25.4 | 15.4 | > 100 | > 100 | > 100 | > 100 | > 100 | > 100
